According to patent US11466005B2, “Tricyclic compounds” (JACOBIO PHARMACEUTICALS CO., LTD., priority 2018, dated 2022):

Experiments:
BRD4(BD1) = BRD4(BD1) (Homo sapiens (Human), UniProt O60885); assay: BRD4(BD1) biochemical binding assay (HTRF); settings: biotinylated H4 derived acetylated peptide
Protocol: 1. BRD4(BD1) Binding Assays
The BRD4(BD1) biochemical binding assay was performed by Sundia MediTech Co. Ltd. in 384-well white plate (OptiPlate-384, PerkinElmer) using HTRF technology.
Briefly, 20 nL of compounds were transferred to the 384-well plate by Echo® 550 liquid handler (Labcyte, USA), then 5 μL of BRD4(BD1) (Reaction Biology Company, RD-11-157) solution or the assay buffer was added to each well. After incubating at RT for 15 min, 5 μL of the biotinylated H4 derived acetylated peptide (synthesized by GL Biochem (Shanghai) Ltd) and 10 μL of the detection solution (Cisbio Assay) were added to each well. After incubating for 1 h at RT, the HTRF signal was measure at 615 nm and 665 nm using the EnVision Multilabel Plate Reader (PerkinElmer, USA). Results were analyzed with a two-wavelength signal ratio: intensity (665 nm)/intensity (615 nm). The inhibition percentage in the presence of the compound was calculated according to the equation, Percent inhibition=(Max−Signal)/(Max−Min)*100%. Fit the data in GraphPad Prism V5.0 software (San Diego, Calif.) to obtain IC50 values with nonlinear regression analysis using equation, Y=Bottom+(Top−Bottom)/(1+10^((Log IC50−X)×HillSlope), where Y stands for inhibition percentage and X stands for compound concentration.

MV-4-11 cells = assay: MV-4-11 cell proliferation assay (MTS); assay type: cell-based; settings: Homo sapiens, MV4-11, 72 h, 3 days culture
Protocol: 2. Cell Proliferation Assay
MV-4-11 cell proliferation analysis was conducted by the MIS (3-(4,5-dimethylthiazol-2-yl)-5-(3-carboxymethoxyphenyl)-2-(4-sulfophenyl)-2H-tetrazolium, inner salt) assay. Briefly, MV-4-11 cells will be cultured in IMDM (Iscove's Modified Dubecco's Medium) medium supplemented with 10% (v/v) FBS (fetal bovine serum), under the temperature of 37° C., […] and 95% humidity. The cells will be harvested respectively during the logarithmic growth period and counted with hemocytometer. The cell viability is over […] by trypan blue exclusion. Adjust MV-4-11 cells concentrations to 1.2×10^5 cells/mL with complete medium. Add 100 μL cell suspensions to 96-well plates (triplicates for each cell concentration), the final cell densities are 1.2×10^4 cells/well. The next day, dissolve the test compound with DMSO as stock solution. Dispense 5 μL of the stock solution in 1 mL culture media and add 25 μL drug media into 96-well plates. After serially diluting with culture media, the final concentration of the compound will be 0, 0.03, 0.1, 0.3, 1, 3, 10, 30, 100 nM. The plates will be cultured for 3 days, then measured by means of MTS assay. Add PMS (phenazinium methosulfate) solution to MITS solution (1:20) immediately before addition to the culture plate containing cells. Pipet 20 μL of the combined MTS/PMS Solution into each well of the 96 well assay plate containing 100 μL of cells in culture medium. Incubate the plate for 1-4 hours at 37° C. in a humidified, 5% CO2 atmosphere. Record the absorbance at 490 nm using a microplate spectrophotometer (Envision®, PeikinElmer). Fit the data using GraphPad 5.0 and obtain IC50 values.

| SMILES | IC50 (BRD4(BD1)) [nM] | IC50 (MV-4-11 cells) [nM] |
| --- | --- | --- |
| Cc1noc(C)c1-c1cnc2c3c(c(C(C)(C)O)nn3C)n([C@@H](c3ncccc3F)C3CCOCC3)c2c1 [Compound 31, (R)-2-(6-(3,5-dimethylisoxazol-4-yl)-4-((3-fluoropyridin-2-yl)(tetrahydro-2H-pyran-4-yl)methyl)-1-methyl-1,4-dihydropyrazolo[3′,4′:4,5]pyrrolo[3,2-b]pyridin-3-yl)propan-2-ol] | 4.6 |  |
| CC(=O)N(c1nn(C)c2c3ncc(-c4c(C)nnn4C)cc3n(C(c3ccccc3)C3CCOCC3)c12)S(C)(=O)=O (centres unmarked) [Compound 35, N-(6-(1,4-dimethyl-1H-1,2,3-triazol-5-yl)-1-methyl-4-(phenyl(tetrahydro-2H-pyran-4-yl)methyl)-1,4-dihydropyrazolo[3′,4′:4,5]pyrrolo[3,2-b]pyridin-3-yl)-N-(methylsulfonyl)acetamide] |  | 15.5 |
| Cc1nnn(C)c1-c1cnc2c3c(c(C(C)(C)O)nn3C)n([C@H](c3ccccc3)C3CCOCC3)c2c1 [Compound 6, (S)-2-(6-(1,4-dimethyl-1H-1,2,3-triazol-5-yl)-1-methyl-4-(phenyl(tetrahydro-2H-pyran-4-yl)methyl)-1,4-dihydropyrazolo[3′,4′:4,5]pyrrolo[3,2-b]pyridin-3-yl)propan-2-ol] | 0.49 | 1.1 |
| Cc1ccccc1C(C1CCOCC1)n1c2cc(-c3c(C)noc3C)cnc2c2c1c(C(C)(C)O)nn2C (centres unmarked) [Compound 9, 2-(6-(3,5-dimethylisoxazol-4-yl)-1-methyl-4-((tetrahydro-2H-pyran-4-yl)(o-tolyl)methyl)-1,4-dihydropyrazolo[3′,4′:4,5]pyrrolo[3,2-b]pyridin-3-yl)propan-2-ol] | 0.99 | 5.01 |
| Cc1nnn(C)c1-c1cnc2c3c(c(CN4CCOCC4)nn3C)n(C(c3ccccc3)C3CCOCC3)c2c1 (centres unmarked) [Compound 34, 4-((6-(1,4-dimethyl-1H-1,2,3-triazol-5-yl)-1-methyl-4-(phenyl(tetrahydro-2H-pyran-4-yl)methyl)-1,4-dihydropyrazolo[3′,4′:4,5]pyrrolo[3,2-b]pyridin-3-yl)methyl)morpholine] | 0.34 | 2.16 |
| Cc1nnn(C)c1-c1cnc2c3c(c(C(=O)N(C)C)nn3C)n(C(c3ccccc3)C3CCOCC3)c2c1 (centres unmarked) [Compound 15, 6-(1,4-Dimethyl-1H-1,2,3-triazol-5-yl)-N,N,1-trimethyl-4-(phenyl(tetrahydro-2H-pyran-4-yl)methyl)-1,4-dihydropyrazolo[3′,4′:4,5]pyrrolo[3,2-b]pyridine-3-carboxamide] | 0.61 | 25.1 |
| Cc1nnn(C)c1-c1cnc2c3c(c(C(C)(C)O)nn3C)n([C@H](c3ncccc3F)C3CCOCC3)c2c1 [Compound 7, (S)-2-(6-(1,4-dimethyl-1H-1,2,3-triazol-5-yl)-4-((3-fluoropyridin-2-yl)(tetrahydro-2H-pyran-4-yl)methyl)-1-methyl-1,4-dihydropyrazolo[3′,4′:4,5]pyrrolo[3,2-b]pyridin-3-yl)propan-2-ol] | 0.97 | 0.7 |
| Cc1nnn(C)c1-c1cnc2c3c(c(C(N)=O)nn3C)n(C(c3ncccc3F)C3CCOCC3)c2c1 (centres unmarked) [Compound 21, 6-(1,4-Dimethyl-1H-1,2,3-triazol-5-yl)-4-((3-fluoropyridin-2-yl)(tetrahydro-2H-pyran-4-yl)methyl)-1-methyl-1,4-dihydropyrazolo[3′,4′:4,5]pyrrolo[3,2-b]pyridine-3-carboxamide] |  | 0.77 |
| Cc1nnn(C)c1-c1cnc2c3c(c(C(C)(C)N)nn3C)n(C(c3ccccc3)C3CCOCC3)c2c1 (centres unmarked) [Compound 18, 2-(6-(1,4-Dimethyl-1H-1,2,3-triazol-5-yl)-1-methyl-4-(phenyl(tetrahydro-2H-pyran-4-yl)methyl)-1,4-dihydropyrazolo[3′,4′:4,5]pyrrolo[3,2-b]pyridin-3-yl)propan-2-amine] | 1.1 | 3.93 |
| Cc1noc(C)c1-c1cnc2c3c(c(C(C)(C)O)nn3C)n([C@H](c3ncccc3F)C3CCOCC3)c2c1 [Compound 2, (S)-2-(6-(3,5-dimethylisoxazol-4-yl)-4-((3-fluoropyridin-2-yl)(tetrahydro-2H-pyran-4-yl)methyl)-1-methyl-1,4-dihydropyrazolo[3′,4′:4,5]pyrrolo[3,2-b]pyridin-3-yl)propan-2-ol] | 0.35 | 0.72 |
| Cc1cccnc1C(CCC(F)(F)F)n1c2cc(-c3c(C)nnn3C)cnc2c2c1c(C(C)(C)O)nn2C (centres unmarked) [Compound 11, 2-(6-(1,4-dimethyl-1H-1,2,3-triazol-5-yl)-1-methyl-4-(4,4,4-trifluoro-1-(3-methylpyridin-2-yl)butyl)-1,4-dihydropyrazolo[3′,4′:4,5]pyrrolo[3,2-b]pyridin-3-yl)propan-2-ol] | 1.3 | 7.66 |
| Cc1nnn(C)c1-c1cnc2c3c(c(C(N)=O)nn3C)n(C(c3ccccc3)C3CCOCC3)c2c1 (centres unmarked) [Compound 16, 6-(1,4-Dimethyl-1H-1,2,3-triazol-5-yl)-1-methyl-4-(phenyl(tetrahydro-2H-pyran-4-yl)methyl)-1,4-dihydropyrazolo[3′,4′:4,5]pyrrolo[3,2-b]pyridine-3-carboxamide] | 0.3 | 3.6 |
| Cc1nnn(C)c1-c1cnc2c3c(c(C(C)(C)O)nn3C)n(C(CCC(F)(F)F)c3ccccc3)c2c1 (centres unmarked) [Compound 3, 2-(6-(1,4-Dimethyl-1H-1,2,3-triazol-5-yl)-1-methyl-4-(4,4,4-trifluoro-1-phenylbutyl)-1,4-dihydropyrazolo[3′,4′:4,5]pyrrolo[3,2-b]pyridin-3-yl)propan-2-ol] | 0.66 | 6.06 |
| COc1ccncc1C(C1CCOCC1)n1c2cc(-c3c(C)nnn3C)cnc2c2c1c(C(C)(C)O)nn2C (centres unmarked) [Compound 25, 2-(6-(1,4-dimethyl-1H-1,2,3-triazol-5-yl)-4-((4-methoxypyridin-3-yl)(tetrahydro-2H-pyran-4-yl)methyl)-1-methyl-1,4-dihydropyrazolo[3′,4′:4,5]pyrrolo[3,2-b]pyridin-3-yl)propan-2-ol] |  | 8.25 |
| Cc1nnn(C)c1-c1cnc2c3c(c(C(C)(C)O)nn3C)n([C@@H](c3ncccc3F)C3CCOCC3)c2c1 [Compound 30, (R)-2-(6-(1,4-dimethyl-1H-1,2,3-triazol-5-yl)-4-((3-fluoropyridin-2-yl)(tetrahydro-2H-pyran-4-yl)methyl)-1-methyl-1,4-dihydropyrazolo[3′,4′:4,5]pyrrolo[3,2-b]pyridin-3-yl)propan-2-ol] | 3 |  |
| Cc1nnn(C)c1-c1cnc2c3c(c(CS(C)(=O)=O)nn3C)n(C(c3ccccc3)C3CCOCC3)c2c1 (centres unmarked) [Compound 33, 6-(1,4-dimethyl-1H-1,2,3-triazol-5-yl)-1-methyl-3-((methylsulfonyl)methyl)-4-(phenyl(tetrahydro-2H-pyran-4-yl)methyl)-1,4-dihydropyrazolo[3′,4′:4,5]pyrrolo[3,2-b]pyridine] | 4.67 |  |
| Cc1nnn(C)c1-c1cnc2c3c(c(NS(C)(=O)=O)nn3C)n([C@H](c3ccccc3)C3CCOCC3)c2c1 [Compound 28, (S)—N-(6-(1,4-dimethyl-1H-1,2,3-triazol-5-yl)-1-methyl-4-(phenyl(tetrahydro-2H-pyran-4-yl)methyl)-1,4-dihydropyrazolo[3′,4′:4,5]pyrrolo[3,2-b]pyridin-3-yl)methanesulfonamide] |  | 10.5 |
| COC(=O)c1nn(C)c2c3ncc(-c4c(C)nnn4C)cc3n([C@H](c3ncccc3F)C3CCOCC3)c12 [Compound 7-2, (S)-Methyl 6-(1,4-dimethyl-1H-1,2,3-triazol-5-yl)-4-((3-fluoropyridin-2-yl)(tetrahydro-2H-pyran-4-yl)methyl)-1-methyl-1,4-dihydropyrazolo[3′,4′:4,5]pyrrolo[3,2-b]pyridine-3-carboxylate] |  | 1.11 |
| Cc1cc(F)cc(C)c1C(C)n1c2cc(-c3c(C)nnn3C)cnc2c2c1c(C(C)(C)O)nn2C (centres unmarked) [Compound 27, 2-(6-(1,4-Dimethyl-1H-1,2,3-triazol-5-yl)-4-(1-(4-fluoro-2,6-dimethylphenyl)ethyl)-1-methyl-1,4-dihydropyrazolo[3′,4′:4,5]pyrrolo[3,2-b]pyridin-3-yl)propan-2-ol] | 17 |  |
